From the pKa sets of Baltruschat and Czodrowski (2020)

Conditions: acidic group

SMILES	pKa
NC(=O)CN(CCN(CC(N)=O)Cc1ccccc1O)Cc1ccccc1[O-]	11
CC(=O)c1ccc(O)c2ncccc12	7.75
C=C1CC1C[C@H]([NH3+])C(=O)O (stereo partly drawn)	2.4
O=S(=O)(NCc1ccccc1)c1ccc(Br)cc1	10.7
CCCO	16
O=C(O)COc1ccccc1[N+](=O)[O-]	2.9
O=CC1c2ccccc2C(=O)c2ccccc21	6
Cc1ccc[n+](O)c1	1.08
CC(=O)[n+]1ccc(C)cc1	6.15
COc1ccccc1O	9.7
O=C(NO)c1ccccc1	8.71
CC1(C)SC(=S)NC1=O	5.38
C[n+]1cc(O)c2ccccc2c1	4.93
Cc1ccc(S(=O)(=O)NCCC(=O)[O-])cc1	11.2
CC1(C(=O)O)CCCCC1	5.13
CCCC/C=[N+](\[O-])O	4.5
O=C(O)[C@@H]1C[C@@H]1Cl	4.12
O=C(O)CC#Cc1ccccc1	3.44
O=[N+]([O-])c1cc2cc(O)ccc2cc1Cl	8.56
CC(C#N)C(C)(C)C(=O)O (stereo not drawn)	3.97
NC1=[NH+][C@H](C(=O)O)[C@@H]([C@H](O)C[NH3+])N1	2.4
Cc1nn(-c2ccccc2)c(O)c1C1CCCCC1	11.6
Cn1n[n+](C)nc1N	2.5
C/C=C/C#CC(=O)O	2.67
NC(=O)CS(N)(=O)=O	9.7
O=C(O)C1(C(=O)O)CCCC1	3.24

SMILES	pKa
O=C(O)[C@H]1CCC[C@H](O)C1	4.82
O=C(O)C12CC3CC(CC(F)(C3)C1)C2	4.22
O=[N+]([O-])c1cccc(-c2ccc(O)cc2)c1	9.14
Oc1ccc2nnccc2c1	7.52
COc1ccc(B(O)O)cc1	9.32
COc1ccc(/C=C\C(=O)O)cc1	4.03
Oc1cc(-c2ccccc2)n[nH]1	11.4
c1ccc2[nH]cnc2c1	12.6
C[C@@H]1C[C@@H]([C@H](O)CC2CC(=O)NC(=O)C2)C(=O)[C@@H](C)C1	11.2
CN1CC[C@]23c4c5ccc(O)c4O[C@H]2[C@@H](O)C=C[C@H]3[C@H]1[C@H]5O	9.06
C/C=C(\C(=O)O)c1ccc([N+](=O)[O-])cc1	5
Fc1cccc(NC=S)c1	10.9
Cc1cc(Cc2cc(O)ccc2C)c([O-])c([N+](=O)[O-])c1	10.4
O=C(O)C1CCCOC1 (stereo not drawn)	4.25
O=c1c2[nH]cnc2ncn1[O-]	10.1
C[NH+](C)CCc1nnn[nH]1	4.59
CCN(CC)C(=S)NC(=O)c1ccc(C)cc1	8.77
S=CNCc1ccccc1	12.3
O=C1NC(=O)[C@@H]2CCC[C@H]12	9.53
[O-]c1ccc(O)n[nH+]1	5.73
CC(C)[NH2+]CC(=O)c1ccc(O)cc1	7.56
CCCCCCCP(=O)(CCCCCCC)NC1CCCCC1	12.5
Cn1cc([NH3+])cc1C(=O)O	3.5
CBr	15.4
O=S1(=O)OC(c2cc(Br)c(O)c(Br)c2)(c2cc(Br)c(O)c(Br)c2)c2ccccc21	4.2
C[NH+](C)CCc1ccccc1O	8.75

SMILES	pKa
O=C(O)Cc1ccc(-c2ccccc2)cc1	4.46
O=[N+]([O-])c1ccc(S(=O)(=O)O)cc1	-7.15
C/C(=C\C=C\C(C)C(=O)O)[C@H]1C[NH2+][C@H](C(=O)[O-])[C@H]1CC(=O)[O-] (stereo partly drawn)	4.93
CC(=O)c1ccc(C(=O)O)cc1	3.72
Cn1nc([N+](=O)[O-])nc1NN=O	3.22
Cc1cc(C(C)C)cc(C)c1O	10.9
Cc1cc(Nc2ccc([O-])cc2)c(C(C)C)cc1O	10.7
CCOC(=O)C(Cc1ccc([N+](=O)[O-])cc1)C(C)=O (stereo not drawn)	11.1
COc1cc(C(C)=O)ccc1O	7.65
O=C(O)c1cc([N+](=O)[O-])ccc1C(=O)c1ccccc1	2.86
CC(C)[C@@]12C[NH2+][C@@H](C(=O)O)[C@@H]1CC(=O)O2	2.45
C[Si](C)(C)CCCCCC(=O)O	5.06
CC(C)(C)OOCC(=O)O	3.49
On1nnc2ccccc21	4.6
CC(=O)c1c(C)cc(C)cc1C	10.7
OCCN1CCN(CCO)CC1	7.75
O=C(O)/C=C/SC1CCCCC1	4.7
O=[N+]([O-])c1ccccc1-c1nnn[nH]1	2.98
Cn1c(=O)[nH]c2c(ncn2C)c1=O	6.3
CC(C)(C)S	11.1
OC(O)=C1SCc2ccccc21	5.32
CCOC(=O)/C(=N/O)c1ccccc1	8.95
Cc1ccc(C(=O)[O-])c(O)c1	13.8
O=C1NC(=O)[C@H](CSSC[C@@H]2NC(=O)NC2=O)N1	8.1
Oc1ccc(-c2ccccc2)cc1	9.47
Clc1cccc(-c2nnn[nH]2)c1	3.61

Same assay, conditions: basic group

SMILES	pKa
CN(CCO)c1ccccc1	4.89
CC(=O)c1ccc(O)c2ncccc12	4
C1CCN(N2CCCCC2)CC1	7.09
c1ccc(N(CC2CO2)CC2CO2)cc1 (stereo not drawn)	-0.4
CNc1ccnc([S-])n1	11.1
